How the values were obtained:
HN5 = assay: Antiproliferative activity against human HN5 cells overexpressing EGFR after 3 days by methylene blue staining; conditions: HN5, 72 h
BT-474 = assay: Antiproliferative activity against human BT474 cells overexpressing ErbB2 after 3 days by methylene blue staining; conditions: BT-474, 72 h
Mus musculus = assay: Dose normalized AUC in po dosed mouse; type: ADME, organism-based; conditions: in vivo
[1] = Antiproliferative activity against human foreskin fibroblast after 3 days by methylene blue staining; conditions: 72 h
[2] = molecular target: Epidermal growth factor receptor (Homo sapiens, UniProt P00533); assay: Inhibition of EGFR kinase
Chain of Epidermal growth factor receptor (P00533 whole entry): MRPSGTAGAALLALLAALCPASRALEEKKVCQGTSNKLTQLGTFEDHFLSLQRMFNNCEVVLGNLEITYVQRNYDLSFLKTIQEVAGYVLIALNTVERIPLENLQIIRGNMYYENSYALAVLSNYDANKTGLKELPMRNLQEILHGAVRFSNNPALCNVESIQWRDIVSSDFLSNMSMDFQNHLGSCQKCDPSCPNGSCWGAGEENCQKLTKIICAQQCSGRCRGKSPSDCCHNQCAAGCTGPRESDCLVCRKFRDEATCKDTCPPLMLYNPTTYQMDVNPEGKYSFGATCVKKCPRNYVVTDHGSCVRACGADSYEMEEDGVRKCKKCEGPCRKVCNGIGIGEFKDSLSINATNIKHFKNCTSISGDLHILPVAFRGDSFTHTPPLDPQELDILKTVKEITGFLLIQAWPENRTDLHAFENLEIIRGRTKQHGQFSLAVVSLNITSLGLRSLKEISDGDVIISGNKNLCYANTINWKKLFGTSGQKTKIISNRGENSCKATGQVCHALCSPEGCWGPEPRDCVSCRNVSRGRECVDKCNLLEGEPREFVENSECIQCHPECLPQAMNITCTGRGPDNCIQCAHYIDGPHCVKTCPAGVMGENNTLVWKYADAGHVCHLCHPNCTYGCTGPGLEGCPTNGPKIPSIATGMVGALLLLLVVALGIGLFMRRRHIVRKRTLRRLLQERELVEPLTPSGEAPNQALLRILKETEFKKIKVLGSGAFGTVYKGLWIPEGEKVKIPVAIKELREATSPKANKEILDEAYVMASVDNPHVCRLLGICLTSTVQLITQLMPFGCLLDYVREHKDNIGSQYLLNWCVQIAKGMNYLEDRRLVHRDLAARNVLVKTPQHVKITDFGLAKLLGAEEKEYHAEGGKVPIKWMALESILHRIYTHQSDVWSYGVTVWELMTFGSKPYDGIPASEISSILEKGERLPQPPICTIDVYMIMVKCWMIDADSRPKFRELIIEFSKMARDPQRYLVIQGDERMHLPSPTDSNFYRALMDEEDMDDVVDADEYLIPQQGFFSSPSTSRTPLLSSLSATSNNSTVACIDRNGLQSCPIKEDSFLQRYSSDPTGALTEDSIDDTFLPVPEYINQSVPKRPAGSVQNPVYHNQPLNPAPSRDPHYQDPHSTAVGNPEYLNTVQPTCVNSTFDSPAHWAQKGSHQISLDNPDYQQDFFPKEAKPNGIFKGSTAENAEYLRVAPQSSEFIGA

[3] = molecular target: Receptor tyrosine-protein kinase erbB-2 (Homo sapiens, UniProt P04626)
Chain of Receptor tyrosine-protein kinase erbB-2 (P04626 whole entry): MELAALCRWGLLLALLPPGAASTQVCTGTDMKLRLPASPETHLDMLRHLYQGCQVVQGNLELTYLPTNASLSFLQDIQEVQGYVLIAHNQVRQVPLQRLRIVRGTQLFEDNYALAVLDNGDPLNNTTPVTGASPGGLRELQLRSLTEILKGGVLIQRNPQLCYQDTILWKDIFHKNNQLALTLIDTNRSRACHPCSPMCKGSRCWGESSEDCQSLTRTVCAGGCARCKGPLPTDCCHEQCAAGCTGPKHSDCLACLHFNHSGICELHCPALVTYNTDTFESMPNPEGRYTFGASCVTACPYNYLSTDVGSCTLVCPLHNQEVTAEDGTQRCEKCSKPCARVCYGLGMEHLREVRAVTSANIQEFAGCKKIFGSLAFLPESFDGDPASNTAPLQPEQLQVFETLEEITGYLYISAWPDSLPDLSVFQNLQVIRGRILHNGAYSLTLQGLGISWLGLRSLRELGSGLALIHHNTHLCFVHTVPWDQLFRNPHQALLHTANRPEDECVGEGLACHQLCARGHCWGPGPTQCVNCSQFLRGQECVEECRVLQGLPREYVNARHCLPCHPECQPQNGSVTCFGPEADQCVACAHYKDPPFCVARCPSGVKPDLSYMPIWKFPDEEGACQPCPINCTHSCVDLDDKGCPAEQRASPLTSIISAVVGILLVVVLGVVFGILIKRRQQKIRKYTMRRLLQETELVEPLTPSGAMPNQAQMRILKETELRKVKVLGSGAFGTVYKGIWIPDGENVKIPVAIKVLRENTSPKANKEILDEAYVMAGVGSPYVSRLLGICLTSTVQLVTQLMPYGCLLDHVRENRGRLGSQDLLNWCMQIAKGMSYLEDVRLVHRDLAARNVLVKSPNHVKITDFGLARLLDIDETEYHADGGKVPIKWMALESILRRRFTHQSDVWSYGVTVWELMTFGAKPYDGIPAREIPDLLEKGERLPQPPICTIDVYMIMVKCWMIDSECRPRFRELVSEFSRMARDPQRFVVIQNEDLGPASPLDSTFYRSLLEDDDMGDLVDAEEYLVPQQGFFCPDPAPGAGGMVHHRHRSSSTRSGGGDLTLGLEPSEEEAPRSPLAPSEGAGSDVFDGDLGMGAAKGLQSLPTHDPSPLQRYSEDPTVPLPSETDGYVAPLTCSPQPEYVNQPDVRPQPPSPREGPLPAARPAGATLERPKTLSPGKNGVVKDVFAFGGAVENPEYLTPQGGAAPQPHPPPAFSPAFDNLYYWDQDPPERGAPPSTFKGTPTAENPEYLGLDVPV
Description: Inhibition of ErbB2 kinase

Row | SMILES | IC50 (BT-474) [µM] | AUC (Mus musculus) [ng·kg·h/mg/mL] | IC50 [2] [µM] | IC50 [3] [µM] | IC50 (HN5) [µM] | IC50 [1] [µM]
1 | CNC(=O)O[C@H]1CN[C@H](C#Cc2cc3ncnc(Nc4ccc(OCc5cccc(F)c5)c(Cl)c4)c3s2)C1 | 0.028 | 18 | 0.05 | 0.02 | 0.058 | > 1
2 | COC(=O)N1CCC[C@@H]1C#Cc1cc2ncnc(Nc3ccc(OCc4cccc(F)c4)c(Cl)c3)c2s1 | 1.7 | – | 0.14 | 0.12 | 0.59 | > 1
3 | CCC(=O)O[C@H]1CN[C@H](C#Cc2cc3ncnc(Nc4ccc(OCc5cccc(F)c5)c(Cl)c4)c3s2)C1 | 0.018 | – | 0.063 | 0.09 | 0.052 | > 1
4 | CCOC(=O)O[C@H]1CN[C@H](C#Cc2cc3ncnc(Nc4ccc(OCc5cccc(F)c5)c(Cl)c4)c3s2)C1 | 0.034 | – | 0.141 | 0.135 | 0.2 | > 1
5 | CCS(=O)(=O)N[C@H]1CN[C@H](C#Cc2cc3ncnc(Nc4ccc(OCc5cccc(F)c5)c(Cl)c4)c3s2)C1 | 0.042 | – | 0.05 | – | 0.127 | > 1
6 | COCCN1CCC[C@@H]1C#Cc1cc2ncnc(Nc3ccc(OCc4cccc(F)c4)c(Cl)c3)c2s1 | – | – | 0.13 | – | 0.19 | > 1
7 | CCOC(=O)N[C@H]1CN[C@H](C#Cc2cc3ncnc(Nc4ccc(OCc5cccc(F)c5)c(Cl)c4)c3s2)C1 | 0.04 | – | 0.06 | 0.078 | 0.113 | > 1
8 | CN(C)C(=O)O[C@H]1CN[C@H](C#Cc2cc3ncnc(Nc4ccc(OCc5cccc(F)c5)c(Cl)c4)c3s2)C1 [GSK-182497A] | 0.03 | – | – | – | – | > 1
9 | CCNC(=O)O[C@H]1CN[C@H](C#Cc2cc3ncnc(Nc4ccc(OCc5cccc(F)c5)c(Cl)c4)c3s2)C1 [GSK-192082A] | 0.03 | 61 | 0.032 | – | 0.095 | > 1
10 | O=C(O[C@H]1CN[C@H](C#Cc2cc3ncnc(Nc4ccc(OCc5cccc(F)c5)c(Cl)c4)c3s2)C1)N1CCOCC1 [GW869810X] | 0.03 | – | – | – | – | > 1

Further lines, with some results ahead:

Row | IC50 (BT-474) [µM] | AUC (Mus musculus) [ng·kg·h/mg/mL] | IC50 [2] [µM] | IC50 [3] [µM] | SMILES | IC50 (HN5) [µM] | IC50 [1] [µM]
11 | 0.65 | – | 0.12 | 0.088 | CS(=O)(=O)N1CCC[C@@H]1C#Cc1cc2ncnc(Nc3ccc(OCc4cccc(F)c4)c(Cl)c3)c2s1 | 0.55 | > 1
12 | 0.67 | – | 0.058 | 0.038 | CC(=O)N1CCC[C@@H]1C#Cc1cc2ncnc(Nc3ccc(OCc4cccc(F)c4)c(Cl)c3)c2s1 | 0.037 | > 1
13 | 0.205 | – | 0.109 | 0.054 | Fc1cccc(COc2ccc(Nc3ncnc4cc(C#C[C@@H]5CCCN5)sc34)cc2Cl)c1 | 0.536 | > 1
14 | 0.094 | – | – | – | Fc1cccc(COc2ccc(Nc3ncnc4cc(C#C[C@H]5CCCN5)sc34)cc2Cl)c1 | 0.238 | > 1
15 | 0.045 | – | 0.115 | 0.098 | CCO[C@H]1CN[C@H](C#Cc2cc3ncnc(Nc4ccc(OCc5cccc(F)c5)c(Cl)c4)c3s2)C1 | 0.099 | > 1
16 | 0.039 | 9 | – | 0.011 | O[C@H]1CN[C@H](C#Cc2cc3ncnc(Nc4ccc(OCc5cccc(F)c5)c(Cl)c4)c3s2)C1 | – | > 1
17 | 0.086 | – | 0.081 | 0.04 | CS(=O)(=O)O[C@H]1CN[C@H](C#Cc2cc3ncnc(Nc4ccc(OCc5cccc(F)c5)c(Cl)c4)c3s2)C1 | 0.38 | > 1

Reference: ChEMBL document CHEMBL1143444, “Dual EGFR/ErbB-2 inhibitors from novel pyrrolidinyl-acetylenic thieno[3,2-d]pyrimidines” (Bioorg Med Chem Lett, 2008)
